In ChEMBL document CHEMBL1201861, “Genomics of Drug Sensitity in Cancer screening data, Wellcome Trust Sanger Institute”:

Experiments:
Assay in all cases: cells
DEL = format: functional, cell-based, Homo sapiens; settings: Homo sapiens, DEL;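 note: growth inhibition of the human DEL cell line, read out with a cell viability assay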
DJM-1 = format: functional, cell-based, Homo sapiens; settings: Homo sapiens, DJM-1;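 note: growth inhibition of human DJM-1 cells, read out by a cell viability assay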
ES1 = format: functional, cell-based, Homo sapiens; settings: Homo sapiens, ES1;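 note: growth inhibition of ES1 cells, read out with a cell viability assay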
ES4 = format: functional, cell-based, Homo sapiens; settings: Homo sapiens, ES4;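 note: growth inhibition of human ES4 cells, read out by a cell viability assay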
EOL1 = format: functional, cell-based, Homo sapiens; settings: Homo sapiens, EOL1;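 note: growth inhibition of EoL-1 cells, read out by a cell viability assay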
GI-1 = format: functional, cell-based, Homo sapiens; settings: Homo sapiens, GI-1;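 note: growth inhibition of human GI-1 cells, measured with a cell viability readout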
HCC1187 = format: functional, cell-based, Homo sapiens; settings: Homo sapiens, HCC1187;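 note: growth inhibition of HCC1187 cells, read out with a cell viability assay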
HOP-62 = format: functional, cell-based, Homo sapiens; settings: Homo sapiens, HOP-62;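 note: cell growth inhibition determined with a viability assay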
HT = format: functional, cell-based, Homo sapiens; settings: Homo sapiens, HT
HT-144 = format: functional, cell-based, Homo sapiens; settings: Homo sapiens, HT-144
IST-MEL1 = format: functional, cell-based, Homo sapiens; settings: Homo sapiens, IST-MEL1;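 note: growth inhibition of the cell line, read out with a cell viability assay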
J-RT3-T3-5 = format: functional, cell-based, Homo sapiens; settings: Homo sapiens, J-RT3-T3-5;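 note: cell viability assay measuring growth inhibition of human J-RT3-T3-5 cells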
K562 = format: functional, cell-based, Homo sapiens; settings: Homo sapiens, K562
L-363 = format: functional, cell-based, Homo sapiens; settings: Homo sapiens, L-363
LAMA-84 = format: functional, cell-based, Homo sapiens; settings: Homo sapiens, LAMA-84;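 note: growth inhibition of LAMA-84 cells, read out with a cell viability assay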
LB2241-RCC = format: functional, cell-based, Homo sapiens; settings: Homo sapiens, LB2241-RCC;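 note: cell viability assay measuring how strongly the cultured human renal carcinoma line is prevented from growing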
LB2518-MEL = format: functional, cell-based; settings: Homo sapiens;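 note: growth inhibition of human LB2518-MEL cells, measured with a cell viability assay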
LB771-HNC = format: functional, cell-based; settings: Homo sapiens;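 note: growth inhibition of LB771-HNC human cells, read out with a cell viability assay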
LS-123 = format: functional, cell-based, Homo sapiens; settings: Homo sapiens, LS-123
LU-139 = format: functional, cell-based, Homo sapiens; settings: Homo sapiens, LU-139
MMAC-SF = format: functional, cell-based; settings: Homo sapiens;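 note: growth inhibition of human MMAC-SF cells, read out with a cell viability assay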
MOLT-4 = format: functional, cell-based, Homo sapiens; settings: Homo sapiens, MOLT-4;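 note: growth inhibition of MOLT-4 cells, determined with a cell viability readout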
MZ1-PC = format: functional, cell-based, Homo sapiens; settings: Homo sapiens, MZ1-PC;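 note: cell viability assay measuring growth inhibition of human MZ1-PC cells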
NCI-H1299 = format: functional, cell-based; settings: Homo sapiens;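 note: growth inhibition of human NCI-H1299 cells, read out by a cell viability assay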
NCI-H2126 = format: functional, cell-based, Homo sapiens; settings: Homo sapiens, NCI-H2126;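 note: growth inhibition of the cancer cell line, determined with a cell viability readout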
OCI-AML2 = format: functional, cell-based, Homo sapiens; settings: Homo sapiens, OCI-AML2;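 note: growth inhibition of OCI-AML2 cells, read out with a cell viability assay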
OCUB-M = format: functional, cell-based; settings: Homo sapiens;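 note: growth inhibition of the cancer cell line, read out through a cell viability assay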
OMC-1 = format: functional, cell-based, Homo sapiens; settings: Homo sapiens, OMC-1;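 note: growth inhibition of the OMC-1 cell line, measured by a cell viability assay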
RH-1 = format: functional, cell-based, Homo sapiens; settings: Homo sapiens, RH-1;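 note: growth inhibition of human RH-1 cells, read out with a cell viability assay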
RKO = format: functional, cell-based, Homo sapiens; settings: Homo sapiens, RKO;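 note: growth inhibition of human RKO cells, read out with a cell viability assay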
RPMI-8866 = format: functional, cell-based, Homo sapiens; settings: Homo sapiens, RPMI-8866
SF-126 = format: functional, cell-based, Homo sapiens; settings: Homo sapiens, SF-126;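 note: growth inhibition of human SF126 cells, read out with a cell viability assay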
SH-4 = format: functional, cell-based; settings: Homo sapiens;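 note: growth inhibition of SH-4 cells, read out with a cell viability assay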
SHP77 = format: functional, cell-based, Homo sapiens, SHP-77; settings: Homo sapiens, SHP77;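 note: growth inhibition of human SHP-77 cells measured by a cell viability assay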
SK-LMS-1 = format: functional, cell-based, Homo sapiens; settings: Homo sapiens, SK-LMS-1;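 note: growth inhibition of human SK-LMS-1 cells, read out with a cell viability assay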
SK-MEL-2 = format: functional, cell-based, Homo sapiens; settings: Homo sapiens, SK-MEL-2;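 note: growth inhibition of human SK-MEL-2 cells measured with a cell viability assay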
SK-PN-DW = format: functional, cell-based, Homo sapiens; settings: Homo sapiens, SK-PN-DW;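 note: growth inhibition measured with a viability assay on these cells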
SW684 = format: functional, cell-based, Homo sapiens; settings: Homo sapiens, SW684; read-out: IC50;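 note: growth inhibition of human SW684 cells, measured by a cell viability assay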
SW 962 = format: functional, cell-based, Homo sapiens; settings: Homo sapiens, SW 962;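 note: growth inhibition of human SW962 cells, read out by a cell viability assay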
TE-1 = format: functional, cell-based, Homo sapiens; settings: Homo sapiens, TE-1;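 note: growth inhibition of the human TE-1 cell line, read out with a cell viability assay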
697 = format: functional, cell-based, Homo sapiens; settings: Homo sapiens
A3-KAW = format: functional, cell-based, Homo sapiens; settings: Homo sapiens, A3-KAW;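 note: growth inhibition of human A3-KAW cells, read out with a cell viability assay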
BT-474 = format: functional, cell-based, Homo sapiens; settings: Homo sapiens, BT-474
TK-10 = format: functional, cell-based, Homo sapiens; settings: Homo sapiens, TK-10;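 note: growth inhibition of TK-10 cells, read out in a cell viability assay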
U-266 = format: functional, cell-based, Homo sapiens; settings: Homo sapiens, U-266
no-10 = format: functional, cell-based, Homo sapiens; settings: Homo sapiens;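 note: growth inhibition of no-10 cells, read out with a cell viability assay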
CAS-1 = format: functional, cell-based, Homo sapiens; settings: Homo sapiens, CAS-1;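 note: growth inhibition of CAS-1 cells, measured with a cell viability assay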
COLO-684 = format: functional, cell-based, Homo sapiens; settings: Homo sapiens, COLO-684
GAK = format: functional, cell-based, Homo sapiens; settings: Homo sapiens, GAK
SCC-15 = format: functional, cell-based, Homo sapiens; settings: Homo sapiens, SCC-15;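 note: growth inhibition of SCC-15 cells, read out with a cell viability assay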
A704 = format: functional, cell-based; settings: Homo sapiens;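 note: growth inhibition of human A704 cells, read out with a cell viability assay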

For `Nc1ccccc1NC(=O)c1ccc(CNC(=O)OCc2cccnc2)cc1` [ENTINOSTAT], the IC50 (DEL) was 375 nM, the IC50 (DJM-1) was 3600 nM and the IC50 (ES1) was 113 nM. The IC50 (ES4) was 859 nM, the IC50 (EOL1) was > 5000 nM and the IC50 (GI-1) was 2930 nM. The IC50 (HCC1187) was 4900 nM, the IC50 (HOP-62) was 484 nM and the IC50 (HT) was 2100 nM. For the same compound, the IC50 (HT-144) was 303 nM, the IC50 (IST-MEL1) was 1180 nM and the IC50 (J-RT3-T3-5) was 337 nM. For the same compound, the IC50 (K562) was 1390 nM, the IC50 (L-363) was 567 nM and the IC50 (LAMA-84) was 776 nM. The IC50 (LB2241-RCC) was 1290 nM, the IC50 (LB2518-MEL) was 933 nM and the IC50 (LB771-HNC) was > 5000 nM. For the same compound, the IC50 (LS-123) was 2350 nM, the IC50 (LU-139) was 335 nM and the IC50 (MMAC-SF) was > 5000 nM. For the same compound, the IC50 (MOLT-4) was 1030 nM, the IC50 (MZ1-PC) was 3620 nM and the IC50 (NCI-H1299) was > 5000 nM. For the same compound, the IC50 (NCI-H2126) was > 5000 nM, the IC50 (OCI-AML2) was 3630 nM and the IC50 (OCUB-M) was 1210 nM. The IC50 (OMC-1) was > 5000 nM, the IC50 (RH-1) was > 5000 nM and the IC50 (RKO) was 3770 nM. It also gave an IC50 (RPMI-8866) of 1600 nM, an IC50 (SF-126) of 2330 nM and an IC50 (SH-4) of 1020 nM. For the same compound, the IC50 (SHP77) was 4010 nM, the IC50 (SK-LMS-1) was > 5000 nM and the IC50 (SK-MEL-2) was > 5000 nM. The IC50 (SK-PN-DW) was 978 nM, the IC50 (SW684) was > 5000 nM and the IC50 (SW 962) was > 5000 nM. It also gave an IC50 (TE-1) of 553 nM, an IC50 697 of 99.8 nM and an IC50 (A3-KAW) of 176 nM. For the same compound, the IC50 (BT-474) was 1520 nM, the IC50 (TK-10) was 1830 nM and the IC50 (U-266) was 2850 nM. For the same compound, the IC50 (no-10) was 1230 nM, the IC50 (CAS-1) was > 5000 nM and the IC50 (COLO-684) was > 5000 nM.

For `COc1cc(N2CCC(N3CCN(C)CC3)CC2)ccc1Nc1ncc(Cl)c(Nc2ccccc2S(=O)(=O)C(C)C)n1` [TAE-684], the IC50 (DEL) was < 7.81 nM, the IC50 (DJM-1) was > 2000 nM and the IC50 (ES1) was > 2000 nM. The IC50 (ES4) was 491 nM, the IC50 (EOL1) was > 2000 nM and the IC50 (GAK) was […]. The IC50 (GI-1) was 1100 nM, the IC50 (HCC1187) was 1860 nM and the IC50 (HOP-62) was 650 nM. The IC50 (HT) was > 2000 nM, the IC50 (HT-144) was 1630 nM and the IC50 (IST-MEL1) was > 2000 nM. The IC50 (J-RT3-T3-5) was > 2000 nM, the IC50 (K562) was > 2000 nM and the IC50 (L-363) was 824 nM. For the same compound, the IC50 (LAMA-84) was > 2000 nM, the IC50 (LB2241-RCC) was 988 nM and the IC50 (LB2518-MEL) was > 2000 nM. For the same compound, the IC50 (LB771-HNC) was 898 nM, the IC50 (LS-123) was 1520 nM and the IC50 (LU-139) was > 2000 nM. The IC50 (MMAC-SF) was > 2000 nM, the IC50 (MOLT-4) was > 2000 nM and the IC50 (MZ1-PC) was 178 nM. For the same compound, the IC50 (NCI-H1299) was > 2000 nM, the IC50 (NCI-H2126) was > 2000 nM and the IC50 (OCI-AML2) was 483 nM. The IC50 (OCUB-M) was 1360 nM, the IC50 (OMC-1) was > 2000 nM and the IC50 (RH-1) was > 2000 nM. For the same compound, the IC50 (RKO) was 1500 nM, the IC50 (RPMI-8866) was > 2000 nM and the IC50 (SCC-15) was > 2000 nM. The IC50 (SF-126) was 1120 nM, the IC50 (SH-4) was > 2000 nM and the IC50 (SHP77) was > 2000 nM. For the same compound, the IC50 (SK-LMS-1) was 1160 nM, the IC50 (SK-MEL-2) was > 2000 nM and the IC50 (SK-PN-DW) was 1260 nM. For the same compound, the IC50 (SW684) was > 2000 nM, the IC50 (SW 962) was 1560 nM and the IC50 (TE-1) was 691 nM. For the same compound, the IC50 697 was 432 nM, the IC50 (A3-KAW) was > 2000 nM and the IC50 (A704) was 1330 nM. For the same compound, the IC50 (BT-474) was > 2000 nM, the IC50 (TK-10) was 1050 nM and the IC50 (U-266) was 1740 nM. For the same compound, the IC50 (no-10) was > 2000 nM, the IC50 (CAS-1) was 1980 nM and the IC50 (COLO-684) was > 2000 nM.
